pIC50: −log10 of the molar value. Read-outs that look alike come from different tables or passages of the source.
Tests used:
CCK receptor (Pancreas) = target: T1, CCK receptor (Pancreas) (Rattus norvegicus, UniProt P30551); test: CCK Receptor Binding (Pancreas), displacement of 125I-CCK-8; set-up: species or system rat (male Sprague-Dawley); conditions: rat pancreas membranes, 125I-CCK-8 50 pM; for pIC50: 25° C., 2 hours
T1 construct: The whole pancreas was dissected free of fat tissue and was homogenized; from tissue; host or cells: rat whole pancreas (male Sprague-Dawley), membrane homogenate
T1 sequence (P30551 1-444): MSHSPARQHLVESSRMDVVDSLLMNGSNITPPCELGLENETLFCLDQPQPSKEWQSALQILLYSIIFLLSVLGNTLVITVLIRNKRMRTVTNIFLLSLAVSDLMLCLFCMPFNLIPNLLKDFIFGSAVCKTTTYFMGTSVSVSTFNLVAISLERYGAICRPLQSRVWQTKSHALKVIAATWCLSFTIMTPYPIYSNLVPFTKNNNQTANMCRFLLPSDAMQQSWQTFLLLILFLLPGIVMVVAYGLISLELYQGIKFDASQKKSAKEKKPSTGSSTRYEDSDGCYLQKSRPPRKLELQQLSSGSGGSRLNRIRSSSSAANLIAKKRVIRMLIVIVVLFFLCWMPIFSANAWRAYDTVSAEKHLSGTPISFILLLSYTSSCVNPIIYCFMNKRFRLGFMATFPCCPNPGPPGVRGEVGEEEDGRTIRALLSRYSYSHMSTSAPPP
Procedure: CCK-8 sulphated was radiolabelled with ^125 I-Bolton Hunter reagent (2000 Ci/mmole). Receptor binding was performed according to Chang and Lotti (Proc. Natl. Acad. Sci. 83, 4923-4926, 1986) with minor modifications.
Male Sprague-Dawley rats (150-200 g) were sacrificed by decapitation. The whole pancreas was dissected free of fat tissue and was homogenized in 25 volumes of ice-cold 10 mM N-2-hydroxyethyl-piperazine-N'-2-ethane sulphonic acid (HEPES) buffer with 0.1% soya bean trypsin inhibitor (pH 7.4 at 25° C. ) with a Kinematica Polytron. The homogenates were centrifuged at 47,800 g for 10 min. Pellets were resuspended in 10 volumes of binding assay buffer (20mM (HEPES)), 1 mM ethylene glycol-bis-(β-aminoethylether-N,N'-tetraacetic acid) (EGTA), 5 mM MgCl2, 150 mM NaCl, bacitracin 0.25 mg/ml, soya bean trypsin inhibitor 0.1 mg/ml, and bovine serum albumin 2 mg/ml pH 6.5 at 25° C.) using a Teflon (trademark). homogenizer, 15 strokes at 500 rpm. The homogenate was further diluted in binding assay buffer to give a final concentration of 0.5 mg original wet weight/1 ml buffer. […] All assays were run in.duplicate. The reaction mixtures were incubated at 25° C. for 2 hours and the reaction terminated by rapid filtration (Brandell 24 well cell harvester) over Whatman GF/C filters, washing 3×4 mls with ice-cold 100 Mm NaCl. The radioactivity on the filters was counted with a LKB gamma counter.
(§1) Drug displacement studies were performed with at least 10 concentrations of compounds of Formula I and the IC50 values were determined by regression analysis IC50 refers to the concentration of the compound required to inhibit 50% of specific binding of ^125 I-CCK-8.

CCK receptor (Brain) = target: T2, CCK receptor (Brain) (Cavia porcellus, UniProt H0VZC5); test: biochemical; format: binding, guinea pig (male Hartley), cortex
T2 construct: the cortex was removed and homogenized in 25 mL ice-cold 0.32M sucrose; from tissue; host or cells: guinea pig cortex (male Hartley), P2 membrane pellet
T2 sequence (H0VZC5 1-426): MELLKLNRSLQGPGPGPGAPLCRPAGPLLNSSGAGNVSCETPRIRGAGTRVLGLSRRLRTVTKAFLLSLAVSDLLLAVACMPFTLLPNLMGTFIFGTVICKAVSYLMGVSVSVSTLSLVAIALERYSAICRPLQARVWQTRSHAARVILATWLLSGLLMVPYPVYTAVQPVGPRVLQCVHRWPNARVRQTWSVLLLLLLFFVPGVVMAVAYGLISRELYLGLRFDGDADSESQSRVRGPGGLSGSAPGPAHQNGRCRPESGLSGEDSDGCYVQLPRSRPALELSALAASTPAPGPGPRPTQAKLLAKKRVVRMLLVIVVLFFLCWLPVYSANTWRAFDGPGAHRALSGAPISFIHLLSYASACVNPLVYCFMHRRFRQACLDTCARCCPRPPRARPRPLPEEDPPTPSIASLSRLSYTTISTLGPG
Procedure: CCK-8 sulphated was radiolabelled and the binding was performed according to the description for the pancreas method with minor modifications.
Male Hartley guinea pigs (300-500 g) were sacrificed by decapitation and the cortex was removed and homogenized in 25 mL ice-cold 0.32M sucrose. The homogenates were centrifuged at 1000 g for 10 minutes and the resulting supernatant was recentrifuged at 20,000 g for 20 minutes. The P2 pellet was resuspended in binding assay buffer (20 mM HEPES, 5 mM MgCl2, 0.25 mg/ml bacitracin, 1 mM EGTA pH 6.5 at 25° C. ), using a Teflon (trademark) homogenizer (5 strokes at 500 rpm) to give a final concentration of 10 mg original wet weight/1.2 ml buffer. […] All assays were run in duplicate. The reaction mixtures were incubated at 25° C. for 2 hours and then the reaction was terminated by rapid filtration (Brandell 24 well cell harvester) on Whatman GF/C filters with 3×5 ml washes of cold 100 mM NaCl. The radioactivity on the filters was counted with a LKB gamma counter.
as §1

Gastrin receptor = target: T3, Gastrin receptor (Cavia porcellus, UniProt H0VZC5); test: Gastrin Receptor Binding in Guinea Pig Gastric Glands, displacement of 125I-gastrin; set-up: species or system guinea pig (male Hartley); conditions: 125I-gastrin 0.1 nM, 25° C., 30 minutes
T3 construct: from tissue; host or cells: guinea pig gastric mucosal glands (male Hartley), isolated with collagenase
T3 sequence (H0VZC5 1-426): T2 sequence (H0VZC5 1-426)
Procedure: Gastrin antagonist activity of compounds of Formula I was determined using the following assay.
Guinea pig gastric mucosal glands were prepared by the procedure of Chang et. al., Science, 230, 177-179 (1985) with slight modifications. […] The tissues were passed twice through a 5 ml syringe to liberate the gastric glands, and then filtered through Nitex (trademark) #202 gauge nylon mesh. The filtered glands were centrifuged at 272 g for 5 minutes and washed twice by resuspension in 25 ml buffer and centrifugation.
The washed guinea pig gastric glands prepared as above were resuspended in 25 ml of standard buffer. For binding studies, to 250 μl of gastric glands, 30 μl of buffer (for total binding) or gastrin (3 μM final concentration, for nonspecific binding) or test compound and 20 μl of ^125 I-gastrin (NEN, 2200 Ci/mmole, 0.1 nM final concentration) were added. All assays were run in triplicate. […] The reaction mixtures, after incubation at 25° C. for 30 minutes in a shaking water bath were rapidly filtered (Brandell 24 well cell harvester) over Whatman G/F B filters presoaked in assay buffer and immediately washed further with 3×4 ml of 100 mM ice cold NaCl. The radioactivity on the filters was measured using a LKB gamma counter.

[1] = 125I-CCK-8 50 pM, guinea pig cortex membranes, 25° C., 2 hours, read-out: IC50, 125I-CCK Brain

| SMILES | % (inhibition of 125I-CCK binding) Pancreas (CCK receptor (Pancreas); at 3 μM) [%] | pIC50 (CCK receptor (Brain); [1]) | pIC50 (CCK receptor (Pancreas)) | pIC50 (Gastrin receptor) | pIC50 (CCK receptor (Brain)) |
| --- | --- | --- | --- | --- | --- |
| CC(C)CN1C(=O)C(NC(=O)Nc2cccc(-c3nn[nH]n3)c2)N=C(C2CCCCC2)c2ccccc21 (racemic) [Example 2, N-[3(R,S)-5-Cyclohexyl-2,3-dihydro-1-(2-methylpropyl)-2-oxo-1H-1,4-benzodiazepin-3-yl] N'-[3-tetrazol-5-ylphenyl]urea] | 27 | – | – | – | – |
| CN1C(=O)C(NC(=O)Nc2cccc(S(=O)(=O)Nc3cnccn3)c2)N=C(C2CCCCC2)c2ccccc21 (racemic) [Example 22, N-[3(R,S)-5-Cyclohexyl-2,3-dihydro-1-methyl-2-oxo-1H-1,4-benzodiazepin-3-yl] N'-[3-(2-pyrazinylaminosulphonyl)phenyl]urea] | – | 8.17 | 7.15 | – | – |
| CN1C(=O)C(NC(=O)Nc2cccc(C(=O)NS(=O)(=O)C(C)(C)C)c2)N=C(C2CCCCC2)c2ccccc21 (racemic) [Example 31, N-[3(R,S)-5-Cyclohexyl-2,3-dihydro-1-methyl-2-oxo-1H-1,4-benzodiazepin-3-yl]N'-[3-(1,1-dimethylethylsulphonylaminocarbonyl)phenyl]urea] | – | 9.66 | 8.21 | – | – |
| CN1C(=O)C(NC(=O)Nc2cccc(C(=O)NS(=O)(=O)C(C)(C)C)c2)N=C(C2CCCC2)c2ccccc21 (racemic) [Example 39, N-[3(R,S)-5-Cyclopentyl-2,3-dihydro-1-methyl-2-oxo-1H-1,4-benzodiazepin-3-yl]N'-[3-(1,1-dimethylethylsulphonylaminocarbonyl)phenylurea] | – | 9.25 | 6.57 | 8.93 | – |
| CN1C(=O)C(NC(=O)Nc2cccc([S+](C)[O-])c2)N=C(C2CCCCC2)c2ccccc21 (racemic) [Example 42, N-[3(R,S)-5-Cyclohexyl-2,3-dihydro-1-methyl-2-oxo-1H-1,4-benzodiazepin-3-yl]N'-[3(R,S)-(methylsulphinyl)phenyl]urea] | – | – | 7.74 | – | 7.82 |
